System: HMPV clinical isolate A2 strain TN 94-49
Experiment: HMPV antiviral assay, Method 2 (LLC-MK2 cells with CP-100-356, ATP-Lite)
Assay type: cell-based
Details: human metapneumovirus
Method in brief: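 EC50 comes from a four-parameter fit of percent cell viability (ATP-Lite, normalized to virus-only and cell-only wells) after 7 days at 37 °C. Infection used HMPV A2 TN 94-49 at MOI 0.16 in LLC-MK2 cells, with 2 μM P-gp inhibitor CP-100-356 and 2 μg/mL TPCK-trypsin final; dose range 200 nM top, 2.5-fold, 10 points, duplicate.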

[1] = hMPV A2 TN/94-49, LLC-MK2 cells with CP-100-356, Method 2
[2] = 168 h, hMPV A2 TN/94-49, LLC-MK2 cells with 4 μM CP-100-356, 7 days, ATP-Lite

SMILES | EC50 [1] [µM] | EC50 [2] [µM]
C[C@]1(C(N)=O)COc2c1cc([C@@](O)(CNC(=O)c1ccc3nc(C4CCC4)oc3c1)c1ccccc1)nc2-c1cc(Cl)c(F)cc1F [Example 221] | > 0.2 | 
COc1cc(C(=O)NC[C@](O)(c2cc3c(c(-c4cccc(C(=O)O)c4Cl)n2)OC[C@]3(C)C(N)=O)C2CC2)cc2cn(C3CC3)nc12 [Example 808] |  | > 0.2
COc1cc(C(=O)NC[C@@](O)(c2ccc(F)cc2)c2cc3c(c(-c4ccnc(C)c4Cl)n2)OC[C@]3(C)C(N)=O)cc2oc(C3CC3)nc12 [Example 649] |  | < 0.2
C[C@]1(C(N)=O)COc2c1cc([C@@](O)(CNC(=O)c1cc(OC3CC3)c3nc(C4CC4)sc3c1)c1ccccc1)nc2-c1cc(Cl)c(F)cc1F [Example 190] | > 0.2 | 
COc1cc(C(=O)NC[C@](O)(c2cc3c(c(-c4ccnc(C)c4Cl)n2)OC[C@]3(C)C(N)=O)C2(F)CC2)cc2oc(C(F)F)nc12 [Example 533] | > 0.2 | 
C[C@]1(C(N)=O)COc2c1cc([C@@](O)(CNC(=O)c1cc(OC(F)F)c3ncc(Cl)cc3c1)c1ccccc1)nc2-c1cc(Cl)c(F)cc1F [Example 231] | < 0.2 | 
COc1nccc(-c2nc([C@@](O)(CNC(=O)c3cc(OC)c4nn(C5CC5)cc4c3)c3ccc(F)cc3)cc3c2OC[C@]3(C)C(N)=O)c1Cl [Example 696] |  | < 0.2
COc1nccc(-c2nc([C@@](O)(CNC(=O)c3cc(OC)c4nn(C5(F)CC5)cc4c3)c3ccccc3)cc3c2OC[C@]3(C)C(N)=O)c1Cl [Example 555] | < 0.2 | 
COc1nccc(-c2nc([C@@](O)(CNC(=O)c3cc(OC)c4nc(C(F)F)oc4c3)C(F)(F)F)cc3c2OC[C@]3(C)C(N)=O)c1Cl [Example 547] | > 0.2 | 
C[C@]1(C(N)=O)COc2c1cc([C@@](O)(CNC(=O)c1cc(F)c3nn(C4CC4)cc3c1)c1ccccc1)nc2-c1cc(Cl)c(F)cc1F [Example 100] | < 0.2 | 
COc1cc(C(=O)NC[C@](O)(c2cc3c(c(-c4ccnc(Cl)c4Cl)n2)OC[C@]3(C)C(N)=O)C2(F)CC2)cc2sc(C)nc12 [Example 524] | < 0.2 | 
CNc1cc([C@](O)(CNC(=O)c2cc(OC)c3nn(C4CC4)cc3c2)c2cc3c(c(-c4cc(Cl)c(F)cc4F)n2)OC[C@]3(C)C(N)=O)ccn1 [Example 490] | < 0.2 | 
COc1cc(C(=O)NC[C@](O)(c2cc3c(c(-c4ccc(SC(F)(F)F)cc4)n2)OC[C@]3(C)C(N)=O)C2CC2)cc2cn(C3CC3)nc12 [Example 386] | > 0.2 | 
COc1cc(C(=O)NC[C@@](O)(c2cccc(S(C)(=O)=O)c2)c2cc3c(c(-c4cc(Cl)c(F)cc4F)n2)OC[C@]3(C)C(N)=O)cc2cn(C3CC3)nc12 [Example 483] | < 0.2 | 
C[C@]1(C(N)=O)COc2c1cc([C@@](O)(CNC(=O)c1ccc3nc(C(F)F)oc3c1)c1ccccc1)nc2-c1cc(Cl)c(F)cc1F [Example 222] | > 0.2 | 
C[C@]1(C(N)=O)COc2c1cc([C@@](O)(CNC(=O)c1cc(Cl)c3nn(C4CC4)cc3c1)c1ccccc1)nc2-c1cc(Cl)c(F)cc1F [Example 99] | < 0.2 | 

SMILES | EC50 [1] [µM] | EC50 [2] [µM]
COc1cc(C(=O)NC[C@](O)(c2cc3c(c(-c4ccn5nc(C)cc5c4Cl)n2)OC[C@]3(C)C(N)=O)C2CC2)cc2cn(C3CC3)nc12 [Example 837] |  | > 0.2
COc1cc(C(=O)NC[C@](O)(c2cccc(F)c2)c2cc3c(c(-c4cc(F)c(F)cc4C(N)=O)n2)OC[C@]3(C)C(N)=O)cc2cn(C3(F)CC3)nc12 [Example 406] | > 0.2 | 
COc1cc(C(=O)NC[C@@](O)(c2ccncc2)c2cc3c(c(-c4cc(Cl)c(F)cc4F)n2)OC[C@]3(C)C(N)=O)cc2cn(C3CC3)nc12 [Example 152] | < 0.2 | 
C[C@]1(C(N)=O)COc2c1cc([C@@](O)(CNC(=O)c1cc(OC3CC3)c3nn(C4(F)CC4)cc3c1)C1CC1)nc2-c1ccc(F)c(Cl)c1 [Example 112] | < 0.2 | 
C[C@]1(C(N)=O)COc2c1cc([C@@](O)(CNC(=O)c1ccc3nn(C4CC4)cc3c1)c1ccccc1)nc2-c1cc(Cl)c(F)cc1F [Example 101] | < 0.2 | 
COc1cc(C(=O)NC[C@](O)(c2cc3c(c(-n4ccc5cnccc54)n2)OC[C@]3(C)C(N)=O)C2CC2)cc2cn(C3CC3)nc12 [Example 841] |  | < 0.2
COc1nccc(-c2nc([C@@](O)(CNC(=O)c3cc(OC4CC4)c4nn(C5(F)CC5)cc4c3)C3CC3)cc3c2OC[C@]3(C)C(N)=O)c1Cl [Example 592] | < 0.2 | 
COc1cc(C(=O)NC[C@@](O)(c2cnccn2)c2cc3c(c(-c4cc(Cl)c(F)cc4F)n2)OC[C@]3(C)C(N)=O)cc2cn(C3CC3)nc12 [Example 487] | < 0.2 | 
C[C@]1(C(N)=O)COc2c1cc([C@@](O)(CNC(=O)c1cc(OC3CC3)c3ncc(Cl)cc3c1)c1ccccc1)nc2-c1cc(Cl)c(F)cc1F [Example 196] | < 0.2 | 
C[C@]1(C(N)=O)COc2c1cc([C@@](O)(CNC(=O)c1cc(Cl)c3nn(C4CC4)cc3c1)C1CC1)nc2-c1cc(C(F)(F)F)ncc1F [Example 353] | < 0.2 | 
COc1cc(C(=O)NC[C@@](O)(c2ccnc(F)c2)c2cc3c(c(-c4cccc(Cl)c4Cl)n2)OC[C@]3(C)C(N)=O)cc2cn(C3CC3)nc12 [Example 492] | < 0.2 | 
COc1cc(C(=O)NC[C@](O)(c2cc3c(c(-c4ccnc5[nH]ccc45)n2)OC[C@]3(C)C(N)=O)C2CC2)cc2cn(C3CC3)nc12 [Example 429] | > 0.2 | 
COc1cc(C(=O)NC[C@](O)(c2cc3c(c(-n4ccc5c(F)cccc54)n2)OC[C@]3(C)C(N)=O)C(F)(F)F)cc2sc(N)nc12 [Example 691] |  | < 0.2
COc1cc(C(=O)NC[C@@](O)(c2ccc(F)cc2)c2cc3c(c(-c4ccnc(C(F)F)c4Cl)n2)OC[C@]3(C)C(N)=O)cc2cn(C3CC3)nc12 [Example 569] | < 0.2 | 
COc1cc(C(=O)NC[C@](O)(c2cc3c(c(-c4ccnc(C(F)F)c4Cl)n2)OC[C@]3(C)C(N)=O)C(F)(F)F)cc2cn(C(F)F)nc12 [Example 797] |  | < 0.2

The next lines start with the values.

EC50 [1] [µM] | EC50 [2] [µM] | SMILES
 | > 0.2 | COc1cc(C(=O)NC[C@](O)(c2cc3c(c(-c4ccnc(OC(C)C)c4Cl)n2)OC[C@]3(C)C(N)=O)C2CC2)cc2cn(C3CC3)nc12 [Example 806]
< 0.2 |  | Cc1nccc(-c2nc([C@@](O)(CNC(=O)c3cc(OC4CC4)c4nn(C(F)F)cc4c3)C3CC3)cc3c2OC[C@]3(C)C(N)=O)c1Cl [Example 601]
 | < 0.2 | COc1cc(C(=O)NC[C@](O)(c2cc3c(c(-c4cc(C(F)(F)F)ncc4F)n2)OC[C@]3(C)C(N)=O)C2(F)CC2)cc2cn(C3(F)CC3)nc12 [Example 666]
 | < 0.2 | C[C@]1(C(N)=O)COc2c1cc([C@@](O)(CNC(=O)c1cc(Cl)c3nn(C4CC4)cc3c1)C1CC1)nc2-c1cc(C(F)(F)F)ncc1F [Example 660]
< 0.2 |  | COc1cc(C(=O)NC[C@](O)(c2cc3c(c(-n4ccc5cnccc54)n2)OC[C@]3(C)C(N)=O)C2CC2)cc2cn(C3CC3)nc12 [Example 447]
< 0.2 |  | COc1cc(C(=O)NC[C@](O)(c2cc3c(c(-c4c(C)cncc4C)n2)OC[C@]3(C)C(N)=O)C2CC2)cc2cn(C3CC3)nc12 [Example 431]
< 0.2 |  | COc1cc(C(=O)NCC(O)(c2ccc(F)cn2)c2cc3c(c(-c4cc(Cl)c(F)cc4F)n2)OC[C@]3(C)C(N)=O)cc2cn(C3CC3)nc12 (stereo partly shown) [Example 210]
< 0.2 |  | COc1cc(C(=O)NC[C@](O)(c2cc3c(c(-c4cc(C(F)(F)F)ncc4F)n2)OC[C@]3(C)C(N)=O)C2CC2)cn2cc(C3CC3)nc12 [Example 246]
> 0.2 |  | COc1cc(C(=O)NC[C@@](O)(c2cccc(F)c2)c2cc3c(c(-c4ccncc4Cl)n2)OC[C@]3(C)C(N)=O)cc2cn(C3CC3)nc12 [Example 377]
> 0.2 |  | C[C@]1(C(N)=O)COc2c1cc([C@@](O)(CNC(=O)c1ccc3nc(C4CC4)oc3c1)c1ccccc1)nc2-c1cc(C(F)(F)F)c(F)cc1F [Example 307]
 | > 0.2 | COc1nccc(-c2nc([C@@](O)(CNC(=O)c3cc(OC)c4nc(C5CC5)oc4c3)C3CC(F)(F)C3)cc3c2OC[C@]3(C)C(N)=O)c1Cl [Example 897]
 | > 0.2 | COc1cc(C(=O)NC[C@](O)(c2cc3c(c(-c4ccnc(C)c4Cl)n2)OC[C@]3(C)C(N)=O)C(F)(F)F)cc2cn(C3CC3)nc12 [Example 883]
< 0.2 |  | COc1cc(C(=O)NCC(O)(c2cc(F)nc(F)c2)c2cc3c(c(-c4cccc(Cl)c4Cl)n2)OC[C@]3(C)C(N)=O)cc2cn(C3CC3)nc12 (stereo partly shown) [Example 499]
< 0.2 |  | C[C@]1(C(N)=O)COc2c1cc([C@@](O)(CNC(=O)c1cc(OC3CC3)c3nn(C4(F)CC4)cc3c1)C(F)(F)F)nc2-c1ccnc(C(F)(F)F)c1Cl [Example 595]
 | < 0.2 | COc1nccc(-c2nc([C@@](O)(CNC(=O)c3cc(OC)c4nn(C5CC5)cc4c3)c3cccc(F)c3)cc3c2OC[C@]3(C)C(N)=O)c1Cl [Example 877]
< 0.2 |  | COc1cc(C(=O)NC[C@@](O)(c2ccnc(C)c2)c2cc3c(c(-c4cc(Cl)c(F)cc4F)n2)OC[C@]3(C)C(N)=O)cc2cn(C3CC3)nc12 [Example 485]
< 0.2 |  | COc1cc(C(=O)NC[C@@](O)(c2ccc(F)cc2)c2cc3c(c(-c4ccnc(C(F)(F)F)c4F)n2)OC[C@]3(C)C(N)=O)cc2oc(C3CC3)nc12 [Example 574]
< 0.2 |  | COc1cc(C(=O)NC[C@@](O)(c2cccc(F)c2)c2cc3c(c(-c4ccnc(C)c4Cl)n2)OC[C@]3(C)C(N)=O)cc2cn(C(F)F)nc12 [Example 538]
> 0.2 |  | COc1cc(C(=O)NC[C@@](O)(c2ccc(=O)[nH]c2)c2cc3c(c(-c4cc(Cl)c(F)cc4F)n2)OC[C@]3(C)C(N)=O)cc2cn(C3CC3)nc12 [Example 505]
< 0.2 |  | C[C@]1(C(N)=O)COc2c1cc([C@@](O)(CNC(=O)c1ccc3nc(C4CC4)oc3c1)c1ccccc1)nc2-c1cc(F)c(F)cc1F [Example 194]
< 0.2 |  | COc1cc(C(=O)NC[C@](O)(c2cc3c(c(-c4cc(C5CC5)ncc4F)n2)OC[C@]3(C)C(N)=O)C2CC2)cc2cn(C3CC3)nc12 [Example 432]
